Target: hen egg-white lysozyme (Gallus gallus, UniProt P00698)
Assay: 1H–[…] HMQC NMR of caged lysozyme with cage-tethered GlcNAc
Type: biochemical

Molecule `CC(=O)N[C@H]1C(O)O[C@H](CO)[C@@H](O)[C@@H]1O` (stereo partly shown) [GlcNAc, N-acetylglucosamine] has a Kd of 6 µM.

Source: publication PMC12076163 (Chemical Science, 2025)
